The source of these data is US20190374526A1, “Substituted Heterocyclic Compounds as Inhibitors of PRDM9” (Merck Sharp & Dohme Corp., priority 2018, published 2019).

Structures can show the parent of a compound that is named as a salt. Where only a bound is given, the exact number is not on record here.

The target in the experiment is T1, hPRDM9 (amino acids 195-385) (Homo sapiens, UniProt Q9NQV7).
T1 construct: 1.25 nM hPRDM9 (amino acids 195-385)
T1 sequence (Q9NQV7 195-385): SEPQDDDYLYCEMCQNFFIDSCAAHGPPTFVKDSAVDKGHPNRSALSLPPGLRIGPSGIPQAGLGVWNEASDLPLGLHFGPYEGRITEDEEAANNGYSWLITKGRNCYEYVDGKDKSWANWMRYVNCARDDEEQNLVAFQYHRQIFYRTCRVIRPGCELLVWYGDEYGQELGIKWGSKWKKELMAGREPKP
Nature of the experiment: PRDM9 biochemical assay (radiometric, 3[H] methyl transfer from SAM to biotinylated histone H3 peptide). Particulars: 1 nM hPRDM9, 1 μM biotinylated H3(1-25)K4 peptide, 5 μM 3[H]-SAM, 55 μM un-labeled SAM, 25° C., 30 minutes. As for the experimental part:
The PRDM9 biochemical assay was carried out using a radiometric format involving the transfer of ^3[H] methyl group from S-adenosyl methionine (SAM) to a biotinylated histone H3 peptide (H3(1-25)K4). 10 mM compounds in DMSO were diluted 20 fold in assay buffer (10 mM Tris-HCl, pH 8.5, 10 mM DTT, and 0.01% Triton X-100) before adding […] to a well in a 384 well polypropylene microplate plate and adding 8 μl of reaction mix (1.25 nM hPRDM9 (amino acids 195-385), 1.25 μM biotinylated H3 peptide in assay buffer). The ^3[H]-SAM and cold SAM stock solutions were diluted to 50 μM and 550 μM respectively in assay buffer before aliquoting 1 μl of 50 μM ^3[H]-SAM, 550 μM SAM into each well to initiate the reaction. The assay was performed at 25° C. at the final concentrations of 1 nM hPRDM9, 1 μM peptide, 5 μM ^3[H]-SAM, and 55 μM un-labeled SAM in assay buffer. The reaction was quenched after 30 minutes by adding 25 μl 7.5 M Guanidine-HCl. Quenched reactions were transferred to streptavidin coated Flashplates, diluted two fold in assay buffer, incubated for 1 hour, and read on a Perkin Elmer Topcount instrument. Compound activity was expressed relative to activity of 0.5% (v/v) DMSO treated samples and fit to a four parameter logistic equation to determine IC50 values.
In the case of `Cc1cc(NCC2(O)CCN(c3nc(-c4cc(Cl)cc(Cl)c4)no3)C2)ccn1` (stereo not drawn) [Compound 37], the half-maximal inhibitory concentration (IC50) (commonly the concentration at which inhibition is half-maximal) was 15.5 µM. That is a double-digit micromolar value.

Molecule `Cc1cc(NCC2CN(c3nc(-c4cc(Cl)cc(Cl)c4)no3)C2)ccn1` [Compound 49] came in with a concentration for half-maximal inhibition (IC50) of 40.2 µM.

For `CNCc1cc(OC)cc(-c2noc(N3CCN(C)C4(CCN(c5ccnc(C)c5)CC4)C3)n2)c1` [Compound 245, 1-(3-methoxy-5-(5-(1-methyl-9-(2-methylpyridin-4-yl)-1,4,9-triazaspiro[5.5]undecan-4-yl)-1,2,4-oxadiazol-3-yl)phenyl)-N-methylmethanamine, HCl], the IC50 stood at 0.083 µM. Compared with the last molecule, the IC50 is about 480-fold lower.

For `COc1ccccc1-c1c(-c2cc(Cl)cc(Cl)c2)noc1N1CCCC2(CN(c3ccnc(C)c3)C2)C1` [Compound 124], the IC50 amounted to 17.6 µM.

With `Cc1cc(N2CC3(CCCN(c4ccc5c(Cl)cc(Cl)cc5n4)C3)C2)ccn1` [Compound 134, 5,7-dichloro-2-(2-(2-methylpyridin-4-yl)-2,6-diazaspiro[3.5]nonan-6-yl)quinoline], the IC50 worked out at 34.6 µM.

With `Cc1cc(N2CCC3C(CCN3c3nc(-c4cc(Cl)cc(Cl)c4)no3)C2)ccn1` (stereo not drawn) [Compound 218], the concentration for half-maximal inhibition (IC50) was 35.5 µM.

Consider `Cc1cc(N2CCC3C2CCCN3c2nc(-c3cc(Cl)cc(Cl)c3)no2)ccn1` (stereo not drawn) [Compound 213], for which the IC50 was 1 µM.

Turning to `Cc1cc(N2CCC(C3CCN(c4nc(-c5cc(Cl)cc(Cl)c5)no4)CC3)CC2)ccn1` [Compound 65], half-maximal inhibition (IC50) was put at 6.2 µM. This IC50 lies about 6.2-fold higher than the previous one.

Take `COCCN1CCN(c2nc(-c3cc(OC)cc(OC)c3)no2)CC12CCN(c1ccnc(C)c1)CC2` [Compound 94]: the half-maximal inhibitory concentration (IC50) is 0.109 µM. This IC50 lies about 57-fold lower than the previous one.

On to `COc1cccc(-c2noc(N3CCCC4(CCN(c5ccnc(C)c5)CC4)C3)n2)c1` [Compound 236], for which the concentration for half-maximal inhibition (IC50) is 0.4 µM.

In the case of `Cc1cc(N2CC3C(C2)C3Nc2nc(-c3cc(Cl)cc(Cl)c3)no2)ccn1` (stereo not drawn) [Compound 228], the IC50 was 34.3 µM.

In the case of `COc1cccc(-c2noc(N3CC4(CCC3=O)CCN(c3ccnc(C)c3)CC4)n2)c1` [Compound 153, 2-(3-(3-methoxyphenyl)-1,2,4-oxadiazol-5-yl)-9-(2-methylpyridin-4-yl)-2,9-diazaspiro[5.5]undecan-3-one], the IC50 turned out to be 44.8 µM. The IC50 values of the last two molecules are within 1.5-fold of each other.

With `Cc1cc(N2CC3(CCCN(C(=O)Nc4cc(Cl)cc(Cl)c4)C3)C2)ccn1` [Compound 240], the IC50 is ≥ 50 µM.

Turning to `CCN1CCN(c2noc(-c3cc(OC)cc(OC)c3)n2)CC12CCN(c1ccnc(C)c1)CC2` [Compound 89], the half-maximal inhibitory concentration (IC50) amounted to 0.08 µM. That is a double-digit nanomolar value.

`Cc1cc(N2CCCC3CN(c4nc(-c5cc(Cl)cc(Cl)c5)no4)CC32)ccn1` (stereo not drawn) [Compound 210] had a 50% inhibitory concentration (IC50) of 35 µM.

With `Cc1cc(N2CC3(CCCN(c4nc(Cc5ccc(F)cc5)no4)C3)C2)ccn1` [Compound 143], the IC50 was ≥ 50 µM.

In turn, `Cc1cc(N2CCC3(CCCN(c4noc(-c5cccc(Cl)c5)n4)C3)CC2)ccn1` [Compound 88] returned a concentration for half-maximal inhibition (IC50) of 0.06 µM. This counts as double-digit nanomolar.

On to `Cc1cc(N2CC(CCNc3nc(-c4cc(Cl)cc(Cl)c4)no3)C2)ccn1` [Compound 52], for which half-maximal inhibition (IC50) required 29.4 µM. This IC50 is about 490-fold higher than that of the molecule before.

`COc1cc(Cl)cc(-c2nc(N3CCCC4(CCN(c5ccnc(C)c5)CC4)C3)no2)c1` [Compound 86] gave a concentration for half-maximal inhibition (IC50) of 0.28 µM.

`Cc1cc(NCCCN(C)c2nc(-c3cc(Cl)cc(Cl)c3)no2)ccn1` [Compound 16]: the IC50 was 11.5 µM.

In turn, `Cc1cc(NC[C@H]2CCN(c3nc(-c4cc(Cl)cc(Cl)c4)no3)C2)ccn1` [Compound 81] had an IC50 of 13.3 µM. This IC50 and that of the molecule before are within 1.5-fold of each other.

Consider `Cc1cc(N2CC3(CCCN(c4cc(-c5cc(Cl)cc(Cl)c5)ccn4)C3)C2)ccn1` [Compound 137, 6-(4-(3,5-dichlorophenyl)pyridin-2-yl)-2-(2-methylpyridin-4-yl)-2,6-diazaspiro[3.5]nonane], for which the IC50 is 21.5 µM. This IC50 lies about 1.6-fold higher than the previous one.

Molecule `COc1cc(CN)cc(-c2noc(N3CCN(C)C4(CCN(c5ccnc(C)c5)CC4)C3)n2)c1` [Compound 243, (3-methoxy-5-(5-(1-methyl-9-(2-methylpyridin-4-yl)-1,4,9-triazaspiro[5.5]undecan-4-yl)-1,2,4-oxadiazol-3-yl)phenyl)methanamine] showed a half-inhibitory concentration (IC50) of 0.103 µM.

`Cc1cc(N2CC3(CCCN(c4ccnc(-c5cc(Cl)cc(Cl)c5)c4)C3)C2)ccn1` [Compound 132, 6-(2-(3,5-dichlorophenyl)pyridin-4-yl)-2-(2-methylpyridin-4-yl)-2,6-diazaspiro[3.5]nonane]: it took 5.46 µM to reach half-maximal inhibition (IC50).

For `Cc1cc(N2CC3CCC(Nc4nc(-c5cc(Cl)cc(Cl)c5)no4)CC3C2)ccn1` (stereo not drawn) [Compound 70], the 50% inhibitory concentration (IC50) came out at 6.9 µM. This IC50 and that of the molecule before are within 1.5-fold of each other.

In turn, `COc1cc(OC)cc(-c2noc(N3CC(C)(C)OC4(CN(c5ccnc(C)c5)C4)C3)n2)c1` [Compound 163] came in with a 50% inhibitory concentration (IC50) of 3.08 µM.

In the case of `Cc1cc(N(C)CCCCNc2nc(-c3cc(Cl)cc(Cl)c3)no2)ccn1` [Compound 58], the IC50 was found to be 24 µM. Against the preceding molecule, the IC50 is about 7.8-fold higher.

`COc1cccc(-c2noc(N3CCOC4(CCN(c5ccnc(C)c5)CC4)C3)n2)c1` [Compound 166] displayed a half-maximal inhibitory concentration (IC50) of 0.8 µM.

With `Cc1cc(NC2CC3(CCN(c4nc(-c5cc(Cl)cc(Cl)c5)no4)C3)C2)ccn1` (stereo not drawn) [Compound 154, 6-(3-(3,5-dichlorophenyl)-1,2,4-oxadiazol-5-yl)-N-(2-methylpyridin-4-yl)-6-azaspiro[3.4]octan-2-amine], inhibition was half-maximal at 3.45 µM (IC50).

The molecule `COC(=O)c1cccc(-c2cc(N3CCCC4(CN(c5ccnc(C)c5)C4)C3)[nH]n2)c1` [Compound 130, methyl 3-(5-(2-(2-methylpyridin-4-yl)-2,6-diazaspiro[3.5]nonan-6-yl)-1H-pyrazol-3-yl)benzoate] displayed a 50% inhibitory concentration (IC50) of 24.3 µM.

`Cc1cc(N2CCC3(CCCN(c4noc(-c5cc(OC(F)F)cc(OC(F)F)c5)n4)C3)CC2)ccn1` [Compound 92] had an IC50 of 0.069 µM. Compared with the last molecule, the IC50 is about 350-fold lower.

The molecule `Cc1cc(N2CC3(CCCN(c4onc(-c5cc(Cl)cc(Cl)c5)c4Br)C3)C2)ccn1` [Compound 121, 4-bromo-3-(3,5-dichlorophenyl)-5-(2-(2-methylpyridin-4-yl)-2,6-diazaspiro[3.5]nonan-6-yl)isoxazole] yielded an IC50 of 13.7 µM.

Consider `Cc1cc(NC(C)C2CCCN(c3nc(-c4cc(Cl)cc(Cl)c4)no3)C2)ccn1` (stereo not drawn) [Compound 11], for which the IC50 came to 19.7 µM. The IC50 values of the last two molecules are within 1.5-fold of each other.

On to `Cc1cc(N2CCC(C3CCN(c4nc(-c5cc(Cl)cc(Cl)c5)no4)C3)CC2)ccn1` (stereo not drawn) [Compound 77], for which the IC50 is 2.63 µM. Compared with the last molecule, the IC50 is about 7.5-fold lower.

`Cc1cc(N2CC3(CCCN(c4nc(-c5cc(Cl)cc(Cl)c5)co4)C3)C2)ccn1` [Compound 118] yielded an IC50 of 16.6 µM.

The molecule `Cc1cc(N2CCCC(Nc3nc(-c4cc(Cl)cc(Cl)c4)no3)CC2)ccn1` (stereo not drawn) [Compound 42] had a concentration for half-maximal inhibition (IC50) of 35.8 µM.

`Cc1cc(NCC2=CCCN(c3nc(-c4cc(Cl)cc(Cl)c4)no3)C2)ccn1` [Compound 220] registered an IC50 of 9.2 µM.

Consider `Cc1cc(N2CC3(CCCN(c4cncc(-c5cc(Cl)cc(Cl)c5)n4)C3)C2)ccn1` [Compound 120], for which the concentration for half-maximal inhibition (IC50) turned out to be 12.2 µM.

Consider `N#Cc1cncc(N2CC3(CCCN(c4nc(-c5cc(Cl)cc(Cl)c5)no4)C3)C2)c1` [Compound 232], for which the half-inhibitory concentration (IC50) amounted to 2 µM.

On to `Cc1cc(NC2CCCC(Nc3nc(-c4cc(Cl)cc(Cl)c4)no3)CC2)ccn1` (stereo not drawn) [Compound 7], for which half-maximal inhibition (IC50) was put at 4.85 µM.

`COc1cc(N2CC3(CCCN(c4nc(-c5cc(Cl)cc(Cl)c5)no4)C3)C2)ccn1` [Compound 193] registered an IC50 of 2 µM.

In turn, `Cc1cc(NCC2CC(C)N(c3nc(-c4cc(Cl)cc(Cl)c4)no3)C2)ccn1` (stereo not drawn) [Compound 172] registered an IC50 of 5.29 µM.

With `Cc1cc(N2CCCC3(CCN3c3nc(-c4cc(Cl)cc(Cl)c4)no3)C2)ccn1` (stereo not drawn) [Compound 231], the IC50 was 37.3 µM.

As to `COc1cc(OC)cc(-c2noc(N3Cc4ccccc4C4(CCN(c5ccnc(C)c5)CC4)C3)n2)c1` [Compound 180], the IC50 was determined as 0.08 µM.

Take `COc1cc(OC)cc(-c2nc(N3CCN(C)C4(CCN(c5ccnc(C)c5)CC4)C3)no2)c1` [Compound 90]: the IC50 is 0.118 µM.

For the molecule `Cc1cc(N2CCC(CCNc3nc(-c4cc(Cl)cc(Cl)c4)no3)CC2)ccn1` [Compound 22], it took 18.6 µM to reach half-maximal inhibition (IC50).

With `COc1cc(OC)cc(-c2noc(N3CCN(CC(F)(F)F)C4(CCN(c5ccnc(C)c5)CC4)C3)n2)c1` [Compound 93, 3-(3,5-dimethoxyphenyl)-5-(9-(2-methylpyridin-4-yl)-1-(2,2,2-trifluoroethyl)-1,4,9-triazaspiro[5.5]undecan-4-yl)-1,2,4-oxadiazole], half-maximal inhibition (IC50) required 0.06 µM.

As to `Cc1cc(N2CCC3(CC2)CN(c2nc(-c4cc(OC(C)C)cc(OC(C)C)c4)no2)CCN3C)ccn1` [Compound 97], the IC50 amounted to 1.37 µM.

In the case of `Cc1cc(N2CCC(CNc3nc(-c4cc(Cl)cc(Cl)c4)no3)(c3ccccc3)CC2)ccn1` [Compound 67], half-maximal inhibition (IC50) was put at 4.44 µM.

As to `Clc1cc(Cl)cc(-c2noc(N3CCCC4(CN(c5cccnn5)C4)C3)n2)c1` [Compound 196], the IC50 stood at 19 µM.

For `Cc1cc(N2CCC3CN(c4nc(-c5cc(Cl)cc(Cl)c5)no4)CC32)ccn1` (stereo not drawn) [Compound 39], the half-maximal inhibitory concentration (IC50) was determined as 12.3 µM.
